Results: patent publication US20090186915A1, “Compositions and methods for treatment of glioblastoma, gliosarcoma, NSCLC, and head and neck cancer” (Unibioscreen S. A., priority 2006, published 2009)

What was measured:
[1] = tested on: PC-3 Human Prostate Cancer Cells; test: Affymetrix whole genome microarray, gene targets; settings: mRNA
Experimental: We performed a first experiment of evaluation of gene targets by means of Affymetrix whole genome microarray using human PC-3 cancer cells grown in vitro and treated with the compound of the invention (N-{2-[2-(dimethylamino)ethyl]-1,3-dioxo-2,3-dihydro-1H-benzo[de]isoquinolin-5-yl}urea) either one time at 1 μM or 10 μM, or 5 times a week (one time a day during five consecutive days) at 1 μM (Full genome analyses were performed at the VIB MicroArray Facility (UZ Gasthuisberg, Catholic University of Leuven, Belgium) using Affymetrix Human Genome U133 set Plus 2.0 (High Wycombe, United Kingdom).
Full genome-wide analyses were performed at the VIB MicroArray Facility (UZ Gasthuisberg, Catholic University of Leuven, Leuven, Belgium) using the Affymetrix Human Genome U133 set Plus 2.0 (High Wycombe, UK).
In addition to R, an open-source software environment for statistical computing, a set of functions called BioConductor was used for the analysis and comprehension of the genomic data. The quality controls in the Affymetrix microarray experiments were performed with the Simpleaffy package and agreed with Affymetrix guidelines. The background correction, expression quantification and normalization were performed using Robust Multichip Analysis. To select differentially expressed genes between two experimental conditions, probes for which no overlap occurred between intervals in the expression values obtained for each condition were first identified. The fold change between two experimental conditions was computed for each of these probes (without any value overlap) as the ratio between the two nearest unlog expression values observed for the two different conditions (i.e., the ratio closest to 1 between any two values from the two different conditions). Probes for which these ratios were above 2.0 or below 0.50 were then selected. The annotations of the genes finally selected in this way were retrieved from the Affymetrix Web site through the BioConductor package ghgu133plus2.h. […] This software package was then used to rank functional clusters by means of the statistical overrepresentation of individual genes in specific categories relative to all the genes in the same category on the microarray.

PC3 = test: MTT overall cell growth, PC3 cells; type: cell-based; settings: Homo sapiens, 72 h; PC-3; 3 days of culturing; mean of six determinations; read-out: IC50 (μM) In Vitro Growth Inhibition
Experimental: Tests were performed in order to rapidly, i.e. within 5 days, measure the effect of the compound of example 2 on the overall cell growth. The test measures the number of metabolically active living cells that are able to transform the yellow product 3-(4,5-dimethylthiazol-2-yl)-2,5-diphenyl tetrazolium bromide (herein referred as MTT) into the blue product formazan dye by mitochondrial reduction. The amount of formazan obtained at the end of the experiment, measured by means of a spectrophotometer, is directly proportional to the number of living cells. Optical density determination thus enables a quantitative measurement of the effect of the investigated compounds as compared to the control condition (untreated cells) and/or to other reference compounds. […]
After 72 hours of incubation at 37° C. with (experimental conditions) or without (control condition) the compound to be tested, the medium was replaced by 100 μl MTT dissolved in RPMI (1640 without phenol red) at a concentration of 1 mg/ml. […] The micro-wells were shaken for 5 minutes and read on a spectrophotometer at wavelengths of 570 nm (maximum formazan absorbance) and 630 nm (back-ground noise).
For each experimental condition, the mean optical density was calculated, as well as the percentage of remaining living cells in comparison with the control. […]

[2] = tested on: human A549 NSCLC orthotopic
Experimental: The purpose of the present study was to evaluate the in vivo efficacy of UNBS5162 on human A549 NSCLC orthotopic nude mice model. The endpoint in this experiment was the survival period of the tumor-bearing mice following treatment, as indicated.
The experiment comprised 6 groups of II mice, one group with mice receiving the vehicle only (Ct group) and 5 groups receiving the treatments as indicated in the Table 13. UNBS5162 was dosed i.v. at 10 mg/kg (in lactic acid vehicle). Taxol (Paclitaxel 6 mg/mL, Bristol-Myers Squibb) was dosed i.v. at 20 mg/kg.

Hs683 or U373 cells = test: Apoptosis by Annexin V-FITC flow cytometry, glioma cells; type: cell-based, human; settings: 10 μM for 72 h
Experimental: UNBS5162-induced apoptotic effects as evaluated by flow cytometry with Annexin V-FITC staining of Hs683 or U373 cells either left untreated (0 μM) or treated with 1 and 10 μM UNBS5162 for 72 h, either as a single treatment (gray bars) or as repeated (“chronic”; black bars) treatment (i.e. 1 μM or 10 μM each day for five days, “5×1”). The data are presented as means+SEM. “*” means that all GBM cells died before the end of the experiment.

[3] = 1 μM once a day for five consecutive days

## CN(C)CCN1C(=O)c2cccc3cc(NC(N)=O)cc(c23)C1=O [UNBS5162, N-{2-[2-(dimethylamino)ethyl]-1,3-dioxo-2,3-dihydro-1H-benzo[de]isoquinolin-5-yl}urea]
[1]; [3]
  ALDH1A3 Expression Level: 5 × 1 μM: 3.7
  ASNS Expression Level: 5 × 1 μM: 0.9
  BCAT1 Expression Level: 5 × 1 μM: 0.8
  CBS Expression Level: 5 × 1 μM: 1.0
  CTH Expression Level: 5 × 1 μM: 0.9
  H2BFS Expression Level: 5 × 1 μM: 0.5
  HIST1H2AC Expression Level: 5 × 1 μM: 0.2
  HIST1H2BC Expression Level: 5 × 1 μM: 0.7
  HIST1H2BD Expression Level: 5 × 1 μM: 0.3
  HIST1H2BG Expression Level: 5 × 1 μM: 0.5
  HIST1H2BK Expression Level: 5 × 1 μM: 0.3
  HIST1H3D Expression Level: 5 × 1 μM: 0.6
  HIST1H3H Expression Level: 5 × 1 μM: 0.6
  HIST2H2AA Expression Level: 5 × 1 μM: 0.5
  HIST2H2BE Expression Level: 5 × 1 μM: 0.3
  PHGDH Expression Level: 5 × 1 μM: 1.0
  SARS Expression Level: 5 × 1 μM: 0.9
  SAT Expression Level: 5 × 1 μM: 0.8
[1]; one time at 1 μM
  ALDH1A3 CT versus 1 μM: 0.7
  ASNS CT versus 1 μM: 1.3
  CBS CT versus 1 μM: 1.0
  CTH CT versus 1 μM: 1.1
  H2AFY CT versus 1 μM: 1.7
  HIST1H2AC CT versus 1 μM: 1.0
  HIST1H3D CT versus 1 μM: 0.9
  PHGDH CT versus 1 μM: 1.4
  SARS CT versus 1 μM: 1.0
  SAT CT versus 1 μM: 1.1
[1]; one time at 10 μM
  ALDH1A3 Expression Level: 10 μM: 2.3
  ASNS Expression Level: 10 μM: 3.6
  BCAT1 Expression Level: 10 μM: 2.1
  CBS Expression Level: 10 μM: 2.2
  CTH Expression Level: 10 μM: 2.0
  H2AFY Expression Level: 10 μM: 2.6
  H2BFS Expression Level: 10 μM: 0.5
  HIST1H2AC Expression Level: 10 μM: 0.4
  HIST1H2BC Expression Level: 10 μM: 0.4
  HIST1H2BD Expression Level: 10 μM: 0.3
  HIST1H2BG Expression Level: 10 μM: 0.4
  HIST1H2BK Expression Level: 10 μM: 0.5
  HIST1H3D Expression Level: 10 μM: 0.4
  HIST1H3H Expression Level: 10 μM: 0.3
  HIST2H2AA Expression Level: 10 μM: 0.4
  HIST2H2BE Expression Level: 10 μM: 0.5
  PHGDH Expression Level: 10 μM: 2.4
  SARS Expression Level: 10 μM: 2.6
  SAT Expression Level: 10 μM: 0.5
PC3
  IC50: 17.3 µM
[2]; UNBS5162 10 mg/kg i.v. in combination with Taxol 20 mg/kg i.v.
  survival of A549 NSCLC xenograft-bearing mice: significantly increased the survival
[2]; UNBS5162 i.v. 10 mg/kg (3i × 6w)
  T/C (%): 102%
Hs683 or U373 cells
  apoptotic events (Annexin V-FITC): induces moderate apoptotic events
